Patent US20090203737A1, “Pyrrole Derivatives as Positive Allosteric Modulators of Metabotropic Receptors” (priority 2005, published 2009)

Key:
rat mGluR5 receptor = molecular target: T1, rat mGluR5 receptor (Rattus norvegicus, UniProt P31424); assay: mGluR5 assay on HEK-expressing rat mGluR5 (fluorescent cell based Ca2+ mobilization assay); conditions: HEK-293 cells stably expressing rat mGluR5; no co-addition of glutamate; mean of at least three independent experiments in duplicate; read-out: Ca++ Flux (mean EC50)
T1 construct: expressed in transfected cells
T1 sequence (P31424 21-1171 isoform P31424-2 limits assumed): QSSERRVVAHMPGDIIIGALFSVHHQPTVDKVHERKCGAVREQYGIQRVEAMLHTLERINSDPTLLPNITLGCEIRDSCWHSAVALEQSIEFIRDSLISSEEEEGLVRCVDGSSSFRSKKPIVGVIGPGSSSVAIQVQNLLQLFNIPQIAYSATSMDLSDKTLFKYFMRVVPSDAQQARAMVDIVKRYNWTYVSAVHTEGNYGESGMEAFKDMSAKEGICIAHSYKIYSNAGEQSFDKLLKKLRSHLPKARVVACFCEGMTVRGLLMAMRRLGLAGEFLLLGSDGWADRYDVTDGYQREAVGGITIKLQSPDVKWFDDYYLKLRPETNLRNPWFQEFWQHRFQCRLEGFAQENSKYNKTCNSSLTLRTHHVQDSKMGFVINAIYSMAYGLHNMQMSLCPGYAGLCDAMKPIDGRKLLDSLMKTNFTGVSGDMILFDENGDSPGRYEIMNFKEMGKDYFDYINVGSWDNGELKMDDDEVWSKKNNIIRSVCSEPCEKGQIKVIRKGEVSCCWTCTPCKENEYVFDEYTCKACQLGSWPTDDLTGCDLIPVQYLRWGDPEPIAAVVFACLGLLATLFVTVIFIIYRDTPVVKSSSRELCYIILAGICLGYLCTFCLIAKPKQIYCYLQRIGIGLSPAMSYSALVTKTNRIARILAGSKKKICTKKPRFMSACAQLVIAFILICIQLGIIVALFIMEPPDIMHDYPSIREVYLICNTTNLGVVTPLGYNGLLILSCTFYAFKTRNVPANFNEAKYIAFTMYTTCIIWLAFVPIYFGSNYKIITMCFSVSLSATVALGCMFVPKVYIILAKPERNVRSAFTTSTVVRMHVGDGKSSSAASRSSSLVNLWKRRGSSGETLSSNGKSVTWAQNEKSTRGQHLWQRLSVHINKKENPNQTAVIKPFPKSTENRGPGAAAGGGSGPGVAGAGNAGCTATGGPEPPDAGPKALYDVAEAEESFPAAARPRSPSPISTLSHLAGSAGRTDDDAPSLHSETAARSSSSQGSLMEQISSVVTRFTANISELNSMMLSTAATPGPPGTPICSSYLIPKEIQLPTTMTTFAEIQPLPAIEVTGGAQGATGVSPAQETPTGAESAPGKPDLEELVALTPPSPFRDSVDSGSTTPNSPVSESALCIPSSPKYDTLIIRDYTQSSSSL
Experimental: Positive functional expression of HEK-293 cells stably expressing rat mGluR5 receptor was determined by measuring intracellular Ca^2+ changes using a Fluorometric Imaging Plate Reader (FLIPR, Molecular Devices, Sunnyvale, Calif.) in response to glutamate or selective known mGluR5 agonists and antagonists. Rat mGluR5 RT-PCR products in HEK-293 cells were sequenced and found 100% identical to rat mGluR5 Genbank reference sequence (NM_017012). HEK-293 cells expressing rmGluR5 were maintained in media containing DMEM, dialyzed Fetal Bovine Serum (10%), Glutamax™ (2 mM), Penicillin (100 units/ml), Streptomycin (100 μg/ml), Geneticin (100 μg/ml) and Hygromycin-B (40 μg/ml) at 37° C./5% CO2.
After one day of incubation, cells were washed with assay buffer containing: 142 mM NaCl, 6 mM KCl, 1 mM […], 1 mM CaCl2, 20 mM HEPES, 1 g/L glucose, 0.125 mM sulfinpyrazone, pH 7.4. After 60 min of loading with 4 uM Fluo-4 (TefLabs, Austin, Tex.), the cells were washed three times with 50 μl of PBS Buffer and resuspended in 45 μl of assay Buffer. The plates were then transferred to a Fluorometric Imaging Plate Reader (FLIPR, Molecular Devices, Sunnyvale, Calif.) for the assessment of intracellular calcium flux. After monitoring the baseline fluorescence for 10 seconds, increasing concentrations of representative compound (from 0.01 to 60 μM) of the present invention diluted in Assay Buffer (15 μl of 4× dilutions) was added to the cell. The final DMSO concentration in the assay was 0.3%. In each experiment, fluorescence was then monitored as a function of time for 3 minutes and the data analyzed using Microsoft Excel and GraphPad Prism. Each data point was also measured two times.
Under these experimental conditions, this HEK-rat mGluR5 cell line is able to directly detect positive allosteric modulators without the need of co-addition of glutamate or mGluR5 agonist.
The concentration-response curves of representative compounds of the present invention were generated using the Prism GraphPad software (Graph Pad Inc, San Diego, USA). The curves were fitted to a four-parameter logistic equation:
(Y=Bottom+(Top−Bottom)/(1+10̂((LogEC50−X)*Hill Slope)
allowing determination of EC50 values.
The Table 1 below represents the mean EC50 obtained from at least three independent experiments of selected molecules performed in duplicate.

SMILES | melting point [°C] | EC50 (rat mGluR5 receptor) [nM]
O=C(c1ccc(F)cc1F)N1CCCC(c2noc(-c3ccc[nH]3)n2)C1 (centres unmarked) [Example 6, (2,4-Difluoro-phenyl)-{3-[5-(1H-pyrrol-2-yl)-[1,2,4]oxadiazol-3-yl]-piperidin-1-yl}-methanone] | 151 | < 1000
O=C(c1ccc(F)cc1)N1CCCC(c2noc(-c3ccc[nH]3)n2)C1 (centres unmarked) [Example 7, (4-Fluoro-phenyl)-{3-[5-(1H-pyrrol-2-yl)-[1,2,4]oxadiazol-3-yl]-piperidin-1-yl}-methanone] | 158 | < 1000
O=C(c1ccc(F)nc1)N1CCCC(c2noc(-c3ccc[nH]3)n2)C1 (centres unmarked) [Example 8, (6-Fluoro-pyridin-3-yl)-{3-[5-(1H-pyrrol-2-yl)-[1,2,4]oxadiazol-3-yl]-piperidin-1-yl}-methanone] | 143 | 1000 to 10000
Cc1cc(F)ccc1C(=O)N1CCCC(c2noc(-c3ccc[nH]3)n2)C1 (centres unmarked) [Example 9, (4-Fluoro-2-methyl-phenyl)-{3-[5-(1H-pyrrol-2-yl)-[1,2,4]oxadiazol-3-yl]-piperidin-1-yl}-methanone] | 203 | 1000 to 10000
O=C(c1ccc(F)cc1)N1CCCC(c2noc(-c3cc4ccccc4[nH]3)n2)C1 (centres unmarked) [Example 11, (4-Fluoro-phenyl)-{3-[5-(1H-indol-2-yl)-[1,2,4]oxadiazol-3-yl]-piperidin-1-yl}-methanone] | 199 to 201 | 1000 to 10000
Cc1oncc1C(=O)N1CCC[C@H](c2nc(-c3cc4ccccc4[nH]3)no2)C1 [Example 19, {(S)-3-[3-(1H-Indol-2-yl)-[1,2,4]oxadiazol-5-yl]-piperidin-1-yl}-(5-methyl-isoxazol-4-yl)-methanone] | 163 to 164 | 1000 to 10000
Cc1oncc1C(=O)N1CCC[C@H](c2nc(-c3ccc[nH]3)no2)C1 [Example 20, (5-Methyl-isoxazol-4-yl)-{(S)-3-[3-(1H-pyrrol-2-yl)-[1,2,4]oxadiazol-5-yl]-piperidin-1-yl}-methanone] | 125 to 127 | > 10000
O=C(c1ccc(F)nc1)N1CCC[C@H](c2noc(-c3ccc[nH]3)n2)C1 [Example 21, (6-Fluoro-pyridin-3-yl)-{(S)-3-[5-(1H-pyrrol-2-yl)-[1,2,4]oxadiazol-3-yl]-piperidin-1-yl}-methanone] | 147 | < 1000
O=C(c1ccc(F)cc1)N1CCC[C@H](c2noc(-c3ccc[nH]3)n2)C1 [Example 22, (4-Fluoro-phenyl)-{(S)-3-[5-(1H-pyrrol-2-yl)-[1,2,4]oxadiazol-3-yl]-piperidin-1-yl}-methanone] | 181 | < 1000
O=C(c1ccc(F)nc1)N1CCCC(c2noc(-c3cc4ccccc4[nH]3)n2)C1 (centres unmarked) [Example 23, (6-Fluoro-pyridin-3-yl)-{3-[5-(1H-indol-2-yl)-[1,2,4]oxadiazol-3-yl]-piperidin-1-yl}-methanone] | 163.1 to 164.3 | 1000 to 10000
Cc1oncc1C(=O)N1CCC[C@H](c2nc(-c3cc(Cl)c[nH]3)no2)C1 [Example 68, {(S)-3-[3-(4-Chloro-1H-pyrrol-2-yl)-[1,2,4]oxadiazol-5-yl]-piperidin-1-yl}-(5-methyl-isoxazol-4-yl)-methanone] | – | 1000 to 10000
O=C(c1ccncc1F)N1CCC[C@H](c2noc(-c3cc(C(F)(F)F)c[nH]3)n2)C1 [Example 77, (3-Fluoro-pyridin-4-yl)-{(S)-3-[5-(4-trifluoromethyl-1H-pyrrol-2-yl)[1,2,4]oxadiazol-3-yl]-piperidin-1-yl}-methanone] | – | 1000 to 10000
O=C(c1ccc(F)nc1)N1CCC[C@H](c2noc(-c3cc(C(F)(F)F)c[nH]3)n2)C1 [Example 78, (6-Fluoro-pyridin-3-yl)-{(S)-3-[5-(4-trifluoromethyl-1H-pyrrol-2-yl)-[1,2,4]oxadiazol-3-yl]-piperidin-1-yl}-methanone] | 165.7 | –

Continued, values first:

melting point [°C] | EC50 (rat mGluR5 receptor) [nM] | SMILES
131 to 132 | 1000 to 10000 | O=C(c1ccc(F)nc1)N1CCC[C@H](c2nc(-c3ccc[nH]3)no2)C1 [Example 4, (6-Fluoro-pyridin-3-yl)-{(S)-3-[3-(1H-pyrrol-2-yl)-[1,2,4]oxadiazol-5-yl]-piperidin 1-yl}-methanone]
177 | < 1000 | O=C(c1ccc(F)c(F)c1)N1CCCC(c2noc(-c3ccc[nH]3)n2)C1 (centres unmarked) [Example 5, (3,4-Difluoro-phenyl)-{3-[5-(1H-pyrrol-2-yl)-[1,2,4]oxadiazol-3-yl]-piperidin-1-yl}-methanone]
168 | < 1000 | O=C(c1ccc(F)c(F)c1)N1CCC[C@H](c2noc(-c3ccc[nH]3)n2)C1 [Example 10, (3,4-Difluoro-phenyl)-{(S)-3-[5-(1H-pyrrol-2-yl)-[1,2,4]oxadiazol-3-yl]-piperidin-1-yl}-methanone]
93 to 94 | > 10000 | O=C(c1ccc(F)c(F)c1)N1CCC[C@H](c2nc(-c3cc4ccccc4[nH]3)no2)C1 [Example 15, (3,4-Difluoro-phenyl)-{(S)-3-[3-(1H-indol-2-yl)-[1,2,4]oxadiazol-5-yl]-piperidin-1-yl}-methanone]
148.5 to 148.9 | 1000 to 10000 | O=C(c1ccc(F)c(F)c1)N1CCCC(c2noc(-c3ncc[nH]3)n2)C1 (centres unmarked) [Example 18, (3,4-Difluoro-phenyl)-{3-[5-(1H-imidazol-2-yl)-[1,2,4]oxadiazol-3-yl]-piperidin-1-yl}-methanone]
156 to 157 | 1000 to 10000 | O=C(c1ccc(F)c(F)c1)N1CCC[C@H](c2nc(-c3ncc[nH]3)no2)C1 [Example 25, (3,4-Difluoro-phenyl)-{(S)-3-[3-(1H-imidazol-2-yl)-[1,2,4]oxadiazol-5-yl]-piperidin-1-yl}-methanone]
– | < 1000 | O=C(c1ccnc(F)c1)N1CCC[C@H](c2noc(-c3cc(F)c[nH]3)n2)C1 [Example 60, (2-Fluoro-pyridin-4-yl)-{(s)-3-[5-(4-fluoro-1H-pyrrol-2-yl)-[1,2,4]oxadiazol-3-yl]-piperidin-1-yl}-methanone]
– | 1000 to 10000 | O=C(c1ccc(F)nc1)N1CCC[C@H](c2noc(-c3cc(F)c[nH]3)n2)C1 [Example 64, (6-Fluoro-pyridin-3-yl)-{(S)-3-[5-(4-fluoro-1H-pyrrol-2-yl)-[1,2,4]oxadiazol-3-yl]-piperidin-1-yl}-methanone]
– | 1000 to 10000 | O=C(c1ccc(F)nc1)N1CCC[C@H](c2nc(-c3cc(Cl)c[nH]3)no2)C1 [Example 65, {(S)-3-[3-(4-Chloro-1H-pyrrol-2-yl)-[1,2,4]oxadiazol-5-yl]-piperidin-1-yl}-(6-fluoro-pyridin-3-yl)-methanone]
– | 1000 to 10000 | O=C(c1ccnc(F)c1)N1CCC[C@H](c2nc(-c3cc(Cl)c[nH]3)no2)C1 [Example 66, {(S)-3-[3-(4-Chloro-1H-pyrrol-2-yl)-[1,2,4]oxadiazol-5-yl]-piperidin-1-yl}-(2-fluoro-pyridin-4-yl)-methanone]
– | 1000 to 10000 | O=C(c1ccncc1F)N1CCC[C@H](c2nc(-c3cc(Cl)c[nH]3)no2)C1 [Example 67, {(S)-3-[3-(4-Chloro-1H-pyrrol-2-yl)-[1,2,4]oxadiazol-5-yl]-piperidin-1-yl}-(3-fluoro-pyridin-4-yl)-methanone]
– | 1000 to 10000 | O=C(c1ccncc1F)N1CCC[C@H](c2nc(-c3cc(Br)c[nH]3)no2)C1 [Example 69, {(S)-3-[3-(4-Bromo-1h-pyrrol-2-yl)-[1,2,4]oxadiazol-5-yl]-piperidin-1-yl}-(3-fluoro-pyridin-4-yl)-methanone]
– | 1000 to 10000 | O=C(c1ccncc1F)N1CCC[C@H](c2nc(-c3cc(F)c[nH]3)no2)C1 [Example 70, (3-Fluoro-pyridin-4-yl)-{(S)-3-[3-(4-fluoro-1H-pyrrol-2-yl)-[1,2,4]oxadiazol-5-yl]-piperidin-1-yl}-methanone]
– | 1000 to 10000 | Cc1c[nH]c(-c2noc([C@H]3CCCN(C(=O)c4ccncc4F)C3)n2)c1 [Example 71, (3-Fluoro-pyridin-4-yl)-{(S)-3-[3-(4-methyl-1H-pyrrol-2-yl)-[1,2,4]oxadiazol-5-Yl]-piperidin-1-yl}-methanone]
– | 1000 to 10000 | Cc1c[nH]c(-c2noc([C@H]3CCCN(C(=O)c4ccc(F)c(F)c4)C3)n2)n1 [Example 79, (3,4-Difluoro-phenyl)-{(S)-3-[3-(4-methyl-1H-imidazol-2-yl)-[1,2,4]oxadiazol-5-yl]-piperidin-1-yl}-methanone]
